{
  "source": "ChEMBL document CHEMBL1140124",
  "about": "“Triterpenoids from the leaves of Diospyros kaki (persimmon) and their inhibitory effects on protein tyrosine phosphatase 1B” (J Nat Prod, 2008)",
  "data": [
    {"target": "T1, Tyrosine-protein phosphatase non-receptor type 1 (Homo sapiens, UniProt P18031)", "T1 sequence (P18031 whole entry)": "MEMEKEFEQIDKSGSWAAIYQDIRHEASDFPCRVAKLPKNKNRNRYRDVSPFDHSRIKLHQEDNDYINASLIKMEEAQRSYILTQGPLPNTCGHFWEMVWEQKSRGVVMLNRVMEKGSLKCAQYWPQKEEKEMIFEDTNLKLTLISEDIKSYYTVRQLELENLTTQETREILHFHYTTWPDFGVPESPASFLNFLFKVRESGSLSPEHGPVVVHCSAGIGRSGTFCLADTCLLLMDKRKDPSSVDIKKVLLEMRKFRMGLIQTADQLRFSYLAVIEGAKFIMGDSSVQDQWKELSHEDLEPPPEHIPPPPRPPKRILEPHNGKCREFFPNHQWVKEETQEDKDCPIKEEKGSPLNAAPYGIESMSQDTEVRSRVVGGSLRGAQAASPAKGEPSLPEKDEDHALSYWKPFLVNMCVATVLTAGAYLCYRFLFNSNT", "assay": "Inhibition of human recombinant PTP1B after 30 mins", "units": {"IC50": "µM"}, "values": [
      {"smiles": "CCCCCCCCCCCCCCCC(=O)C1=C(O)[C@@H](CO)OC1=O", "IC50": 4.1},
      {"smiles": "C[C@@]1(CO)CC[C@]2(C(=O)O)CC[C@]3(C)C(=CC[C@@H]4[C@@]5(C)CC[C@@H](O)[C@](C)(CO)[C@@H]5CC[C@]43C)[C@@H]2C1", "IC50": "> 30"},
      {"smiles": "C[C@H]1[C@H](C)CC[C@]2(C(=O)O)CC[C@]3(C)C(=CC[C@@H]4[C@@]5(C)CC[C@@H](O)[C@](C)(CO)[C@@H]5CC[C@]43C)[C@H]12", "IC50": "> 30"},
      {"smiles": "C[C@@H]1CC[C@]2(C(=O)O)CC[C@]3(C)C(=CC[C@@H]4[C@@]5(C)CCC(=O)[C@](C)(CO)[C@@H]5CC[C@]43C)[C@@H]2[C@]1(C)O", "IC50": 8.1},
      {"smiles": "C[C@H]1[C@H](C)CC[C@]2(C(=O)O)CC[C@]3(C)C(=CC[C@@H]4[C@@]5(C)CC[C@H](O)[C@](C)(CO)[C@@H]5CC[C@]43C)[C@H]12", "IC50": 12.8},
      {"smiles": "C[C@@H]1CC[C@]2(C(=O)O)CC[C@]3(C)C(=CC[C@@H]4[C@@]5(C)CC[C@@H](O)[C@](C)(CO)[C@@H]5CC[C@]43C)[C@@H]2[C@]1(C)O", "note": "[BARBINERVIC ACID]", "IC50": "> 30"},
      {"smiles": "C=C1CC[C@]2(C(=O)O)CC[C@]3(C)C(=CC[C@@H]4[C@@]5(C)CC[C@@H](O)[C@](C)(CO)[C@@H]5CC[C@]43C)[C@@H]2[C@]1(C)O", "note": "[COUSSARIC ACID]", "IC50": "> 30"},
      {"smiles": "C=C1CC[C@]2(C(=O)O)CC[C@]3(C)C(=CC[C@@H]4[C@@]5(C)CC[C@@H](O)[C@](C)(C(=O)O)[C@@H]5CC[C@]43C)[C@@H]2[C@]1(C)O", "note": "[DIOSPYRIC ACID A]", "IC50": "> 30"},
      {"smiles": "C[C@@H]1CC[C@]2(C(=O)O)CC[C@]3(C)C(=CC[C@@H]4[C@@]5(C)CC[C@@H](O)[C@](C)(C(=O)O)[C@@H]5CC[C@]43C)[C@@H]2[C@]1(C)O", "note": "[DIOSPYRIC ACID B]", "IC50": "> 30"},
      {"smiles": "CC1(C)CC[C@]2(C(=O)O)CC[C@]3(C)C(=CC[C@@H]4[C@@]5(C)CCC(=O)C(C)(C)[C@@H]5CC[C@]43C)[C@@H]2C1", "note": "[OLEANONIC ACID]", "IC50": 3.5},
      {"smiles": "C[C@@H]1CC[C@]2(C(=O)O)CC[C@]3(C)C(=CC[C@@H]4[C@@]5(C)CC[C@H](O)C(C)(C)[C@@H]5CC[C@]43C)[C@@H]2[C@]1(C)O", "note": "[POMOLIC ACID]", "IC50": 3.9},
      {"smiles": "C[C@@H]1CC[C@]2(C(=O)O)CC[C@]3(C)C(=CC[C@@H]4[C@@]5(C)CC[C@H](O)[C@](C)(CO)[C@@H]5CC[C@]43C)[C@@H]2[C@]1(C)O", "note": "[ROTUNGENIC ACID]", "IC50": 10.9},
      {"smiles": "CC1(C)CC[C@]2(C(=O)O)CC[C@]3(C)C(=CC[C@@H]4[C@@]5(C)CC[C@@H](O)[C@](C)(CO)[C@@H]5CC[C@]43C)[C@@H]2C1", "note": "[SCUTELLARIC ACID]", "IC50": "> 30"},
      {"smiles": "CC1(C)CC[C@]2(C(=O)O)CC[C@]3(C)C(=CC[C@@H]4[C@@]5(C)CC[C@H](O)[C@](C)(CO)[C@@H]5CC[C@]43C)[C@@H]2[C@@H]1O", "note": "[SPATHODIC ACID]", "IC50": 18.8}
    ]}
  ]
}
